Measurements: PubChem BioAssay (NCI)
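Results reflect a 48-hour exposure of cells in 96-well plates to compound at five concentrations. GI50 is the concentration that inhibits growth by half. TGI: concentration producing complete growth inhibition.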

Experiments:
Assay in all cases: NCI-60 cell line screen, 48 h
[1] = tested on: 786-0 renal
[2] = tested on: A498 renal
[3] = tested on: A549 NSCLC
[4] = tested on: ACHN renal
[5] = tested on: BT-549 breast
[6] = tested on: CAKI-1 renal
[7] = tested on: CCRF-CEM leukemia
[8] = tested on: COLO 205 colon
[9] = tested on: DU-145 prostate
[10] = tested on: EKVX NSCLC
[11] = tested on: HCC-2998 colon
[12] = tested on: HCT-116 colon
[13] = tested on: HCT-15 colon
[14] = tested on: HL-60(TB) leukemia
[15] = tested on: HOP-62 NSCLC
[16] = tested on: HOP-92 NSCLC
[17] = tested on: HS 578T breast
[18] = tested on: HT29 colon
[19] = tested on: IGROV1 ovarian
[20] = tested on: K-562 leukemia
[21] = tested on: KM12 colon
[22] = tested on: LOX IMVI melanoma
[23] = tested on: M14 melanoma
[24] = tested on: MALME-3M melanoma
[25] = tested on: MCF7 breast
[26] = tested on: MDA-MB-231 breast
[27] = tested on: MDA-MB-435
[28] = tested on: MOLT-4 leukemia
[29] = tested on: NCI-H226 lung
[30] = tested on: NCI-H23 lung
[31] = tested on: NCI-H460 lung
[32] = tested on: NCI-H522 lung
[33] = tested on: NCI/ADR-RES ovarian
[34] = tested on: OVCAR-3 ovarian
[35] = tested on: OVCAR-4 ovarian
[36] = tested on: OVCAR-5 ovarian
[37] = tested on: OVCAR-8 ovarian
[38] = tested on: PC-3 prostate
[39] = tested on: RPMI-8226 leukemia
[40] = tested on: RXF 393 renal
[41] = tested on: SF-268 CNS
[42] = tested on: SF-295 CNS
[43] = tested on: SF-539 CNS
[44] = tested on: SK-MEL-2 melanoma
[45] = tested on: SK-MEL-28 melanoma
[46] = tested on: SK-MEL-5 melanoma
[47] = tested on: SK-OV-3 ovarian
[48] = tested on: SN12C renal
[49] = tested on: SNB-19 CNS
[50] = tested on: SNB-75 CNS
[51] = tested on: SR leukemia
[52] = tested on: SW-620 colon
[53] = tested on: T-47D breast
[54] = tested on: TK-10 renal
[55] = tested on: U251 CNS
[56] = tested on: UACC-257 melanoma
[57] = tested on: UACC-62 melanoma
[58] = tested on: UO-31 renal

## C#C[C@]1(O)CC[C@H]2[C@@H]3CC=C4c5sc(Nc6cccc(Cl)n6)nc5CC[C@]4(C)[C@H]3CC[C@@]21C
[1]
  GI50: 226 nM
  TGI: 610 nM
[2]
  GI50: 897 nM
  TGI: 2250 nM
[3]
  GI50: 1200 nM
  TGI: 3550 nM
[4]
  GI50: 856 nM
  TGI: 2930 nM
[5]
  GI50: 903 nM
  TGI: 2360 nM
[6]
  GI50: 819 nM
  TGI: 2450 nM
[7]
  GI50: 430 nM
  TGI: > 21100 nM
[8]
  GI50: 1690 nM
  TGI: 3400 nM
[9]
  GI50: 2170 nM
  TGI: 9200 nM
[10]
  GI50: 1290 nM
  TGI: 6740 nM
[11]
  GI50: 1880 nM
  TGI: 4100 nM
[12]
  GI50: 565 nM
  TGI: 1920 nM
[13]
  GI50: 672 nM
  TGI: 2440 nM
[14]
  GI50: 335 nM
  TGI: 1570 nM
[15]
  GI50: 796 nM
  TGI: 2230 nM
[16]
  GI50: 1200 nM
  TGI: 2660 nM
[17]
  GI50: 338 nM
  TGI: 1550 nM
[18]
  GI50: 1430 nM
  TGI: 3600 nM
[19]
  GI50: 1610 nM
  TGI: 4470 nM
[20]
  GI50: 327 nM
  TGI: 1710 nM
[21]
  GI50: 1250 nM
  TGI: 3150 nM
[22]
  GI50: 705 nM
  TGI: 1980 nM
[23]
  GI50: 491 nM
  TGI: 1780 nM
[24]
  GI50: 1060 nM
  TGI: 2620 nM
[25]
  GI50: 550 nM
  TGI: 2400 nM
[26]
  GI50: 1060 nM
  TGI: 2690 nM
[27]
  GI50: 1010 nM
  TGI: 2730 nM
[28]
  GI50: 301 nM
  TGI: 1170 nM
[29]
  GI50: 1600 nM
  TGI: 4130 nM
[30]
  GI50: 1610 nM
  TGI: 4770 nM
[31]
  GI50: 672 nM
  TGI: 1930 nM
[32]
  GI50: 1710 nM
  TGI: 3610 nM
[33]
  GI50: 1820 nM
  TGI: 5570 nM
[34]
  GI50: 1450 nM
  TGI: 3130 nM
[35]
  GI50: 2110 nM
  TGI: 8600 nM
[36]
  GI50: 1560 nM
  TGI: 3350 nM
[37]
  GI50: 1460 nM
  TGI: 3630 nM
[38]
  GI50: 460 nM
  TGI: 3110 nM
[39]
  GI50: 208 nM
  TGI: 618 nM
[40]
  GI50: 122 nM
  TGI: 349 nM
[41]
  GI50: 1540 nM
  TGI: 4650 nM
[42]
  GI50: 205 nM
  TGI: 529 nM
[43]
  GI50: 204 nM
  TGI: 636 nM
[44]
  GI50: 1190 nM
  TGI: 3340 nM
[45]
  GI50: 226 nM
  TGI: 597 nM
[46]
  GI50: 1650 nM
  TGI: 3120 nM
[47]
  GI50: 867 nM
  TGI: 2710 nM
[48]
  GI50: 1600 nM
  TGI: 3380 nM
[49]
  GI50: 1170 nM
  TGI: 2820 nM
[50]
  GI50: 815 nM
  TGI: 6540 nM
[51]
  GI50: 273 nM
  TGI: 1020 nM
[52]
  GI50: 1190 nM
  TGI: 2570 nM
[53]
  GI50: 1840 nM
  TGI: 5310 nM
[54]
  GI50: 1790 nM
  TGI: 4060 nM
[55]
  GI50: 428 nM
  TGI: 2050 nM
[56]
  GI50: 491 nM
  TGI: 1820 nM
[57]
  GI50: 389 nM
  TGI: 1500 nM
[58]
  GI50: 576 nM
  TGI: 1870 nM
